Experimental data taken from publication PMC12227560, “Total synthesis of a sorrentanone ester library and evaluation of its antimicrobial potential” (Scientific Reports, 2025).
Converted amounts (≈) assume the structure as drawn.

How the values were obtained:
[1] = test system: C. albicans ATCC10231 biofilm formation; test: Anti-biofilm activity assessment (crystal violet); type: cell-based, Candida albicans; conditions: for inhibition of biofilm formation (in words): data not shown
Description: Anti-biofilm activity assessment: The effect of compounds on biofilms formation was determined on C. albicans ATCC 10231 strain. Anti -biofilm assays were conducted using a previously reported methodology with small modifica tions.9 The assay was carried out in 96 - well round-bottom polystyrene microtiter plates. Cells wer e harvested from overnight grown cultures, washed twice with sterile phosphate -buffered saline (PBS; Sigma -Aldrich, Munich, Germany), and resuspended in RPMI 1640 medium (Sigma -Aldrich) containing 2% glucose (w/v) at a concentration of 1 × 10^5 CFU/mL. C. albicans suspension was incubated with 0.5 MIC, 1 MIC, and 2 MIC compounds concentration in 200.0 μL final volume per well for 48 h at 37 °C to allow biofilm formation. Biofilm growth was analyzed by crystal violet (CV) staining of adherent cells and the a bsorbance at 590.0 nm was read on a Tecan Infinite 200 Pro multiplate reader (Tecan Group Ltd., Männedorf, Switzerland). […]

[2] = test system: two S. aureus strains and B. subtilis ATCC6633; test: Antimicrobial assay, Gram-positive bacteria; type: cell-based; conditions: from MIC values
Text: 3. Bioactivity and Toxicity Assays
Antimicrobial assay: According to the standard broth micro-dilution assays, following the Standards of European Committee on Antimicrobial Susceptibility Testing (v 7.3.1: Method for the determination of broth dilution minimum inhibitory concentrations of antifungal agents for yeasts) for Candida spp., and according to the standard broth micro-dilution assays, recommended by the National Committee for Clinical Laboratory Standards (M07-A8) for bacteria MIC values of compounds were determinate. Compounds were dissolved in DMSO at a concentration of 50 mg/mL, and the highest tested concentration was 250 µg/mL. The inoculums were 1x10^5 colony forming units (CFU/mL), for Candida species, and bacteria species, 5x10^5 colony forming units (CFU/mL). The MIC value was recorded as the lowest concentration that inhibited the growth after 24 h at 37 °C. Additionally, 5 µL from each well of 96 well plates was transferred to Luria Agar (LA) plates for bacteria and Sabouraud agar (SAB) plates for Candida spp. and incubated for an additional 24 h at 37 °C, to determine MBC (Minimum bactericidal/fungicidal concentration) values. In Table 1. Are labeled compounds showing a difference in MBC and previously determined MIC values. […]

[3] = test system: B. subtilis ATCC6633; test: Antimicrobial broth micro-dilution assay (MIC); type: cell-based; conditions: Bacillus subtilis; B. subtilis ATCC6633; 24 h at 37 °C; highest tested concentration 250 µg/mL; read-out: Minimum inhibitory concentration (MIC)
How it was run: (§1)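 Compounds dissolved in DMSO (50 mg/mL stock), serially diluted in broth from 250 µg/mL. Wells inoculated (Candida […], bacteria 5x10^5 CFU/mL), incubated 24 h at 37 °C. Lowest growth-inhibiting concentration taken as MIC.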

[4] = test system: P. aeruginosa ATCC27853; test: Antimicrobial broth micro-dilution assay (MIC); type: cell-based; conditions: Pseudomonas aeruginosa; P. aeruginosa ATCC27853; 24 h at 37 °C; highest tested concentration 250 µg/mL; read-out: Minimum inhibitory concentration (MIC)
How it was run: as §1

[5] = test system: C. albicans ATCC10231; test: Antimicrobial broth micro-dilution assay (MIC); type: cell-based; conditions: Candida albicans; C. albicans ATCC10231; 24 h at 37 °C; highest tested concentration 250 µg/mL; read-out: Minimum inhibitory concentration (MIC)
How it was run: as §1

[6] = test system: S. aureus ATCC25923; test: Antimicrobial broth micro-dilution assay (MIC); type: cell-based; conditions: Staphylococcus aureus; S. aureus ATCC25923; 24 h at 37 °C; highest tested concentration 250 µg/mL; read-out: Minimum inhibitory concentration (MIC)
How it was run: as §1

[7] = test system: E. coli NCTC9001; test: Antimicrobial broth micro-dilution assay (MIC); type: cell-based; conditions: Escherichia coli; E. coli NCTC9001; 24 h at 37 °C; highest tested concentration 250 µg/mL; read-out: Minimum inhibitory concentration (MIC)
How it was run: as §1

CC1=C(O)C(=O)C(C)=C(C(=O)OCc2ccccc2)C1=O [compound 41]
inhibition of biofilm formation (in words) [1]: displayed inhibition of biofilm formation
inhibition of biofilm formation ([1]; sub-inhibitory concentration (0.5 times MIC), 48 h): 60–77%
improvement of antibacterial activity compared to sorrentanone (7) [2]: two- to four-fold improved activity
MIC [3]: 15.6 µg/mL (≈ 54.5 µM)
MIC [4]: > 250 µg/mL
MIC [5]: 62.5 µg/mL (≈ 218 µM)
MIC [6]: 31.2 µg/mL (≈ 109 µM)
MIC [7]: > 250 µg/mL

CC1=C(O)C(=O)C(C)=C(C(=O)OCCCC(C)C)C1=O [compound 36]
inhibition of biofilm formation (in words) [1]: displayed inhibition of biofilm formation
improvement of antibacterial activity compared to sorrentanone (7) [2]: two- to four-fold improved activity
MIC [3]: 31.2 µg/mL (≈ 111 µM)
MIC [4]: > 250 µg/mL
MIC [5]: 62.5 µg/mL (≈ 223 µM)
MIC [6]: 15.6 µg/mL (≈ 55.7 µM)
MIC [7]: > 250 µg/mL
